# Source: patent US20230142353A1, “IMPLANT DEVICES AND METHODS FOR TREATMENT OF CERVICAL CANCER” (Washington University, priority 2020, published 2023)
# Columns and labels:
# [1] = 24 hours after IV injection of 100 mg/m^2; cited from earlier work
# [2] = test system: Cervical cancer cell lines; assay: Pt content in cell lines in vitro (ICP-MS); assay type: cell-based, Human; conditions: treated at 6 μM (Av-IC50) for 48 hours, average
# Procedure: Cervical cancer cell lines (10×10^6 cells) were treated Cis-Pt at Av-IC50 for 48 hours. Cells were then lifted with trypsin (0.05% Trypsin-EDTA, Gibco Life Technologies), spun down, and washed 3 times, to eliminate free Cis-Pt. Cell pellets were then weighed, digested, and analyzed by ICP-MS, and the average Pt content in cell lines in vitro (Av-Pt-in vitro) was calculated.
# [3] = test system: Cervical cancer cell lines; assay: In vitro radio-sensitization with Cis-Pt, MTT assay and combination index; assay type: cell-based, Human; conditions: for sensitization to radiation therapy: 6 Gy
# Procedure: (§1) Clinically relevant Pt concentration (Clin-conc) was estimated as a fraction of Av-IC50 based on the relative difference between tissue Pt contents in clinical biopsies and in vitro: Av-IC50×(Av-Pt-Clin/Av-Pt-in vitro). The radiosensitizing effect of Cis-Pt on cervical cancer cell lines was assessed using an MTT assay. Briefly, cells were treated with or without Cis-Pt at Av-IC50 (6 μM) or Clin-conc (1 μM) for a duration of 24 or 48 hours. Additionally, cells were also treated with or without a single-fraction dose of 6 Gy (4 Gy/min) using an RS2000 160 kV x-ray Irradiator equipped with a 0.3-mm copper filter (Rad Source Technologies Inc, Buford, Ga.), at the beginning of the treatment. At the end of each treatment, an MTT assay was performed to determine the survival of the cells.
# The combination effect between Cis-Pt treatment and radiation was evaluated by calculating the combination index (CI) using the formula: CI=(Ea×Eb)/Eab, where Ea and Eb are the individual effects (fractional killing, 0≤Ei≤1) and Eab is the combination effect of drugs a and b. This index represents the ratio between the predicted combination effect and the actual combination effect. When the CI=1, the effect is additive. When the CI<1, the effect is supra-additive; when CI>1, the effect is sub-additive.
# [4] = In vivo biodistribution of Pt in subcutaneous C33A tumor model (ICP-MS); set-up: species or system athymic nude mice; conditions: systemic (IV injection) delivery, 1 mg/kg, 24 hours
# [5] = test system: C33A subcutaneous cervical tumors; assay: In vivo efficacy, tumor progression with or without radiation; set-up: species or system athymic nude mice
# Procedure: C33A cells (2×10^6/mouse) were suspended in 50% Matrigel and 50% DMEM media. The suspended C33A cells were injected subcutaneously around the lower back of 42 female athymic nude mice that were 6 to 8 weeks old. Tumor progression was confirmed after 3 weeks, and mice were then randomized into 6 groups (n=7) and treated with: (1) tail vein injection of PBS (Vehicle-IV), (2) Cis-Pt-IV at 1 mg/kg, (3) Cis-Pt-Implant at 1 mg Cis-Pt/kg, (4) Vehicle-IV+radiation (5 days×2 Gy/day), (5) Cis-Pt-IV+radiation, and (6) Cis-Pt-Implant+radiation.
# In a separate experiment, the effect of a fractionated radiation dose was compared to a single high dose of radiation administered concurrently with Cis-Pt-Implants. C33A cells (2×10^6/mouse) were suspended in 50% Matrigel and 50% DMEM media. The suspended C33A cells were injected subcutaneously around the lower back of 14 female athymic nude mice that were 6 to 8 weeks old (Charles Rivers Laboratories). Tumor progression was confirmed after 3 weeks, mice were then intratumorally implanted with Cis-Pt-loaded implant (1 mg/kg) and randomized into 2 groups (n=7), treated with: (1) fractionated radiation (5 days×2 Gy/d), mimicking external beam radiation; or (2) a single high dose of 8 Gy, mimicking brachytherapy.
# For the in vivo experiments above, tumor progression was monitored by measurement of tumor sizes in all treatment groups every 2 days. […]
# [6] = Pt accumulation in cervical cancer patient biopsies (ICP-MS); assay type: in vivo, Human; conditions: for drug accumulation in patient tissues lower than in cell lines at in vitro efficacious concentration: patient biopsies vs cell lines treated at 6 μM
# Procedure: Patients with biopsy-proven cervical carcinoma were enrolled into an institutional review board-approved prospective study in which cervical tumor biopsies were obtained 3 weeks into chemoradiation treatment. All patients were treated with definitive chemoradiation treatment, which consisted of external beam radiation therapy to the pelvis (50.4 Gy) 4 days per week using intensity-modulated radiation therapy with a split-pelvis technique with 6 weekly brachytherapy boosts to a dose of 6.5 Gy per fraction to point A, starting at week 1. Concurrent with radiation therapy, all patients received the conventional treatment of cisplatin (40 mg/m^2, intravenous [IV]) weekly. Cervical tumor samples were collected immediately before delivery of the third brachytherapy treatment, approximately half-way through the treatment course. Samples were collected, immediately snap-frozen, and processed for storage. The average time between cisplatin administration and biopsy was 4.5 days (range, 1-17 days).
# To determine tissue Cis-Pt accumulation within the patient biopsy samples, tissue digestion and inductively coupled plasma mass spectrometry (ICP-MS) were performed to quantify the levels of Pt in the samples. Briefly, biopsy samples were thawed and precisely weighed (±0.1 mg) before being digested in concentrated nitric acid (HNO3) overnight. Samples were then diluted with deionized water to a final 5% HNO3 (v/v) and digested using a microwave digestion system (MARS 6 Microwave Digestion System, CEM, Matthews, N.C.) at 200° C. for 45 minutes. Samples were analyzed with ICP-MS (ELAN DRC II ICP-MS, Perkin Elmer, Inc, Waltham, Mass.) for Pt content, against a calibration curve of Pt standards of 0, 0.1, 1, 10, 50, 100, and 250 parts per billion (ppb) in 5% HNO3, which were prepared from 10 parts per million Pt standard solution (Inorganic Ventures, Christiansburg, Va.). Terbium was used as an internal standard throughout the ICP-MS analysis. The average Pt content in clinical biopsies (Av-Pt-Clin) was calculated.
# […]
# [7] = test system: cervical cancer cell lines C33A, Me-180, HT3, Caski, and SiHa; assay: In vitro cytotoxicity of Cis-Pt, MTT assay; assay type: cell-based, Human; conditions: average dose-response curve of 5 cell lines, 48 hours, read-out: average IC50 (Av-IC50)
# Procedure: Human cervical cancer cell lines C33A, Me-180, HT3, Caski, and SiHa were purchased from American Type Culture Collection (ATCC; Manassas, Va.). Cell lines were cultured in Dulbecco's Modified Eagle Medium (DMEM; Gibco Life Technologies, Grand Island, N.Y.) supplemented with 10% fetal bovine serum (FBS; Gibco Life Technologies), 2 mmol/L of L-glutamine, 100 ng/mL penicillin, and 100 ng/mL streptomycin (Corning CellGro, Mediatech, Manassas, Va.). All cells were cultured at 37° C., 5% CO2 in a NuAire water jacket incubator (Plymouth, Minn.).
# The in vitro cytotoxicity on cervical cancer cell lines was assessed using an MTT assay (Sigma Aldrich). Briefly, cells were seeded at 5×10^3 cells/well in 96-well plates overnight at 37° C. to promote their adhesion to the plates. […] After 48 hours of treatment, MTT solution was added to the cells for 3 hours, and then the stop solution was added to dissolve the formazan crystals overnight. The wells were read with SpectraMax i3 multimode microplate spectrophotometer (Molecular Devices, San Jose, Calif.) at 570 nm. Dose-response curves were graphed and the average dose-response curve was calculated.
# [8] = test system: C33A cervical cancer cells; assay: In vitro clonogenic survival; assay type: cell-based, Human; conditions: for clonogenic growth: with or without radiation
# Procedure: C33A cervical cancer cells (0.5×10^6 cells/condition) were plated in T25 flasks 24 hours before treatment. Cells were treated with Cis-Pt at 0, 1, 3, or 6 μM for 4 hours, and subjected to irradiation at 0 or 6 Gy (4 Gy/min). Cells were then lifted with trypsin, counted, and were plated in triplicates for each condition at 500 cells per well in 24 well plates. After 12 days of culture, cells were fixed and stained with 0.5% Crystal Violet (Sigma Aldrich) in methanol, washed, and dried.
smiles,measurement,setting,value
"N.N.[Cl][Pt][Cl] [Cis-Pt, cis-Diammineplatinum(II) dichloride]",intratumoral platinum (Pt) concentration,[1],0.9 ng/mg
same,Pt levels in cell lines,[2],about 2560 ng Pt/g tissue
same,sensitization to radiation therapy,[3]; 1 μM Cis-Pt,limited radio-sensitization
same,combination effect of Cis-Pt and radiation by CI,[3]; 1 μM treatment,sub-additive
same,sensitization to radiation therapy,[3]; 6 μM Cis-Pt,significant sensitization to radiation therapy in all cell lines
same,combination effect of Cis-Pt and radiation by CI,[3]; 6 μM treatment,supra-additive
same,Pt concentration in the tumor,[4],53 ng Pt/g tissue
same,treatment outcome with fractionated radiation,[5]; systemic delivery 1 mg/kg + 2 Gy×5 days,improved treatment outcome compared with radiation alone
same,tumor progression,"[5]; systemic delivery (IV) 1 mg/kg, without radiation",did not alter tumor progression
same,Pt levels detected in patient tissues,"[6]; 40 mg/m^2 IV weekly, biopsies about 3 weeks into chemoradiation, average of 20",about 430 ng Pt/g tissue
same,influence of time of biopsy since last injection on Pt level within the tumor,[6]; 1-17 days after injection,not a major factor
same,drug accumulation in patient tissues lower than in cell lines at in vitro efficacious concentration,[6],about 6 fold
same,drug accumulation in patient tissues lower than in cell lines at in vitro efficacious concentration,[6]; listed as Cisplatin,6 fold
same,IC50,[7],6 µM
same,clonogenic cell survival,"[8]; 1 μM, alone or in combination with radiation (6 Gy)",unable to limit clonogenic cell survival
same,clonogenic growth,[8]; 3 μM,significantly restricted clonogenic growth
same,clonogenic growth,[8]; 6 μM,significantly restricted clonogenic growth
